Test results as given in US10385036B2, “Sulfonamide-substituted indole modulators of RORC2 and methods of use thereof” (Pfizer Inc., priority 2015, dated 2019).

Columns and labels:
[1] = test system: IL-17 production from human Th17 cells; assay: Assay of IL-17 production from human Th17 cells; assay type: cell-based; settings: 144 h; IL-17A in supernatant by ELISA (MSD) after 6 days, human CD4+ T cells differentiated into Th17; read-out: IC50
Description: The activity of compound of the invention can be also be determined by an IL-17 production from human Th17 cells assay. In general, this assay measures blockade of IL-17 production, the signature cytokine of T helper 17 (Th17) cells, by compounds. Purified human CD4+ T cells are stimulated with anti-CD3+anti-CD28 and incubated with a cytokine cocktail that induce their differentiation into Th17 in the absence or presence of various concentrations of compound. After 6 days, IL-17A concentration is measured in the cell culture supernatant with an ELISA kit (MSD).
Preparation of human CD4+ T cells. CD4+ T cells were purified from buffy coats from healthy donors (obtained from Massachusetts General Hospital) by negative selection the following procedure: Mixing 25 mL of blood with 1 mL of Rosette Sep CD4+ T cell enrichment cocktail (StemCell Technologies) followed by application of a layer of 14 mL Ficoll Paque Plus (Amersham GE Healthcare) and subsequent centrifugation at 1200 g for 20 min at room temperature. The Ficoll layer was then harvested and washed with phosphate saline buffer containing 2% (v/v) fetal bovine serum and cells were resuspended with RPMI medium containing 10% (v/v) fetal bovine serum and 10% (v/v) DMSO, frozen and kept in LN2 until used.
[…] Serial dilutions of compounds of the invention are prepared at 10× final concentration in X-Vivo15 medium containing 3% (v/v) DMSO.
On the second day of the assay, a 384-well tissue culture plate was coated with 10 μg/mL anti-hCD3 (eBioscience) at 50 μL/well. After 2 hr at 37° C., the supernatant is discarded and the coated plates are kept in a sterile tissue culture hood.
The cytokine plus anti-CD28 cocktail with CD4+ cells is prepared such that the cocktail is diluted 10-fold and cell density is 0.22×10^6/mL. The mixture is incubated 1 hr at 37° C.
90 μL (20,000 cells) dispensed per well in the anti-hCD3 coated plate prepared as noted above.
10 μL 10× compound is added per well (final DMSO=0.3%) from the compound plate that was previously prepared, followed by 6 days of incubation in a tissue culture vessel in a humidified chamber at 37° C. and 5% CO2.
Measurement is carried out in a Sector Imager 6000 by the same manufacturer. Signal units from the instrument are converted to pg/mL using a calibration curve with known amounts of IL-17A. IC50 values of test compounds (Table 2) are determined by the non-linear regression analysis of dose response curves.

[2] = biological target: RORC2 ligand binding domain (6-His-RORC2 LBD) (Homo sapiens (Human), UniProt P51449); assay: Assay of co-activator recruitment by TR-FRET; assay type: biochemical; settings: 6-His-RORC2 LBD / biotin-coactivator peptide SRC1-2 interaction, 3 hr room temperature
Description: The activity of compound of the invention can be determined by a co-activator recruitment by TR-FRET (time-resolved fluorescence resonance energy transfer) assay. […] When receptor and coactivator are bound to each other, upon shining light at 337 nm on the sample, the Europium emits fluorescence that excites APC due to close proximity (FRET) and this signal is measured at 665 nm. Due to the long lasting fluorescence emission of Europium, the non-specific, short-lived fluorescence is time-resolved (TR) from the fluorescence of interest. Inhibitors of the interaction of receptor and coactivator peptide are detected by a decrease in TR-FRET signal.
Specifically, in one embodiment the aforementioned assay was performed as outlined below. The assay was carried out in black polystyrene, 384-well plates in a total assay volume of 50.5 μL. The assay buffer contained 50 mM TRIS-HCL pH 7.5, 1 mM NaCl, 2 mM MgCl2, 0.5 mg/mL bovine serum albumin, and 5 mM dithiothreitol.

Sequence of RORC2 ligand binding domain (6-His-RORC2 LBD) (P51449 269-508): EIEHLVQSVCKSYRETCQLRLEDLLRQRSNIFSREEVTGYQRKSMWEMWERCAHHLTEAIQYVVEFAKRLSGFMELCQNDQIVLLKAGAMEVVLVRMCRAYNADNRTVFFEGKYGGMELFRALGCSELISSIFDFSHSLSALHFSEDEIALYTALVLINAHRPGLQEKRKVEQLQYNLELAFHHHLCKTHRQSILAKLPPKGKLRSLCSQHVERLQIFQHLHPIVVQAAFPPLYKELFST

IC50 [1] [nM] | IC50 [2] [nM] | SMILES
310 | 16.9 | Cn1cc(C2CCN(C(=O)CC3CC3)CC2)c2cc(NS(=O)(=O)c3ccc(F)cc3)ccc21 [Example 13, N-(3-(1-(2-Cyclopropylacetyl)piperidin-4-yl)-1-methyl-1H-indol-5-yl)-4-fluorobenzenesulfonamide]
189 | 6.8 | Cc1cccc(F)c1C(=O)N1CCC(c2cn(C)c3ccc(NS(=O)(=O)c4ccc(F)cc4)cc23)CC1 [Example 15, 4-fluoro-N-(3-(1-(2-fluoro-6-methylbenzoyl)piperidin-4-yl)-1-methyl-1H-indol-5-yl)benzenesulfonamide]
53.8 | 3.1 | CC(C)[C@H](C)C(=O)N1CCC(c2cn(C)c3ccc(NS(=O)(=O)c4ccc(F)cc4)cc23)CC1 [Example 16, (S)-N-(3-(1-(2,3-dimethylbutanoyl)pipendin-4-yl)-1-methyl-1H-indol-5-yl)-4-fluorobenzenesulfonamide]
114 | 5.9 | Cn1cc(C2CCN(C(=O)C3CCCC3)CC2)c2cc(NS(=O)(=O)c3ccccc3F)ccc21 [Example 17, N-(3-(1-(cyclopentanecarbonyl)piperidin-4-yl)-1-methyl-1H-indol-5-yl)-2-fluorobenzenesulfonamide]
267 | 10.6 | COc1cc(S(=O)(=O)Nc2ccc3c(c2)c(C2CCN(C(=O)C(C)C)CC2)cn3C)ccc1F [Example 22, 4-fluoro-N-(3-(1-isobutyrylpiperidin-4-yl)-1-methyl-1H-indol-5-yl)-3-methoxybenzenesulfonamide]
5.1 | 1.3 | Cc1nn(C)c(C)c1S(=O)(=O)Nc1ccc2c(c1)c(C1CCN(C(=O)[C@H](C)C(C)(C)C)CC1)cn2C [Example 26, (R)-1,3,5-trimethyl-N-(1-methyl-3-(1-(2,3,3-trimethylbutanoyl)piperidin-4-yl)-1H-indol-5-yl)-1H-pyrazole-4-sulfonamide]
19.8 | 10 | Cc1noc(C)c1S(=O)(=O)Nc1ccc2c(c1)c(C1CCN(C(=O)[C@H](C)C(C)(C)C)CC1)cn2C [Example 30, (R)-3,5-dimethyl-N-(1-methyl-3-(1-(2,3,3-trimethylbutanoyl)piperidin-4-yl)-1H-indol-5-yl)isoxazole-4-sulfonamide]
26 | 2.4 | C[C@@H](C(=O)N1CCC(c2cn(C)c3ccc(NS(=O)(=O)c4ccc(F)cc4)cc23)CC1)C12CC(C1)C2 [Example 31, (R)-N-(3-(1-(2-(bicyclo[1.1.1]pentan-1-yl)propanoyl)piperidin-4-yl)-1-methyl-1H-indol-5-yl)-4-fluorobenzenesulfonamide]
